These results are taken from patent US4293694A, “Pyrido[3,2,1-jk]carbazols” (Otsuka Pharmaceutical Co., Ltd., priority 1979, dated 1981).

Converted amounts (≈) assume the structure as drawn. Where two headings read alike, the source gives them in different places. A value given as a limit tells only on which side of the number the result lay.

In one data set the test system is Candida albicans KYU. The experiment in a line: Antimicrobial activity, serial dilution method on agar plate. The format is cell-based. To be noted: read-out: Minimum Inhibitory Concentration (MIC).
Data set [1] concerns Serratia marcescens ATCC 14756. Described as above. The format is cell-based. To be noted: ATCC14756, read-out: Minimum Inhibitory Concentration (MIC).
The subject of a further data set is Streptomyces viridans. The description is as above. It counts as cell-based. The following applies: read-out: Minimum Inhibitory Concentration (MIC).
In data set [2] the test system is Micrococcus flavus ATCC 10240a. The description is as above. The format is cell-based. To be noted: ATCC10240A, read-out: Minimum Inhibitory Concentration (MIC).
Data set [3] concerns Staphyrococcus aureus Newmann. Described as above. It counts as cell-based. To be noted: read-out: Minimum Inhibitory Concentration (MIC).
The subject of data set [4] is Streptococcus faecalis IFO 12580. The description is as above. It counts as cell-based. To be noted: Enterococcus faecalis, IFO12580, read-out: Minimum Inhibitory Concentration (MIC).
A further data set concerns Proteus mirabilis 1287. Described as above. It counts as cell-based. To be noted: read-out: Minimum Inhibitory Concentration (MIC).
The test system of data set [5] is Klebsiella pneumoniae ST-101. Described as above. The format is cell-based. The following applies: ST101, read-out: Minimum Inhibitory Concentration (MIC).
In a further data set the test system is Esherichia coli NIHJ. The data set is described as above. It counts as cell-based. To be noted: read-out: Minimum Inhibitory Concentration (MIC).
A short description of the next data set: Acute toxicity. To be noted: rat, in vivo, rats, dd strain, 18 to 22 g, fasted 12 hours. As to the method:
Further, the acute toxicity of the compounds of the present invention having the formula (I) was determined by intravenous administration (i.v.) and oral administration (p.o.) in 5 to 6 groups of rats (dd strain; body weight, 18 to 22 g; 10 rats in each group) which had been fasted for 12 hours prior to the test.

A further data set concerns Enterbactor cloacae 2. The data set can be described thus: Antimicrobial activity, serial dilution method on agar plate. It counts as cell-based. To be noted: read-out: Minimum Inhibitory Concentration (MIC).
For the next data set, the system named is Bacillus anthracis. The experiment in a line: microbe, parasite or virus in culture. It counts as cell-based. The following applies: read-out: Minimum Inhibitory Concentration (MIC).
Data set [6] concerns Bacillus cereus ATCC 11778. The data set can be described thus: Antimicrobial activity, serial dilution method on agar plate. The format is cell-based. The following applies: ATCC11778, read-out: Minimum Inhibitory Concentration (MIC).
The test system of data set [7] is Esherichia coli NIHJ JC-2. The description is as above. The following applies: read-out: Minimum Inhibitory Concentration (MIC). It counts as cell-based.
In data set [8] the test system is Bacillus subtilis ATCC 6633. Described as above. The format is cell-based. The following applies: ATCC6633, read-out: Minimum Inhibitory Concentration (MIC).
In data set [9] the test system is Salmonella typhimurium kh. Described as above. The following applies: Salmonella enterica, read-out: Minimum Inhibitory Concentration (MIC). The format is cell-based.
The next data set concerns Sarcina lutea ATCC 9341. Described as above. To be noted: Micrococcus luteus, ATCC9341, read-out: Minimum Inhibitory Concentration (MIC). The format is cell-based.
For data set [10], the system named is Staphyrococcus aureus FDA 209p. The description is as above. To be noted: read-out: Minimum Inhibitory Concentration (MIC). The format is cell-based.
The subject of data set [11] is Enterbactor aerogenes IFO 12979. Described as above. To be noted: read-out: Minimum Inhibitory Concentration (MIC). The format is cell-based.
In data set [12] the test system is Pseudomonas aeruginosa ATCC 10145. Described as above. It counts as cell-based. To be noted: ATCC10145, read-out: Minimum Inhibitory Concentration (MIC).
[13] abbreviates: iv, read-out: LD50 (50% lethal dose), i.v.
Where [14] appears, read: po, read-out: LD50 (50% lethal dose), p.o.

For the molecule `Nc1ccc2c3c1c(=O)c(C(=O)O)cn3C1CCCCC21` (stereo not drawn) [Compound 7, 3-amino-7a,8,9,10,11,11a-hexahydro-4-oxo-4H-pyrido[3,2,1-jk]carbazol-5-carboxylic acid], the MIC in the data set on Candida albicans KYU was more than 500 µg/mL; in data set [1], 12.5 µg/mL (≈ 44 µM); with Streptomyces viridans, more than 100 µg/mL; in data set [2], more than 100 µg/mL; in data set [3], 50 µg/mL (≈ 176 µM); in data set [4], more than 100 µg/mL. For the same molecule, the MIC in the data set with Proteus mirabilis 1287 came to 50 µg/mL (≈ 176 µM); in data set [5], 12.5 µg/mL (≈ 44 µM); with Esherichia coli NIHJ it was 25 µg/mL (≈ 87.9 µM); in the data set on Enterbactor cloacae 2, 12.5 µg/mL (≈ 44 µM); with Bacillus anthracis, 12.5 µg/mL (≈ 44 µM); in data set [6], 50 µg/mL (≈ 176 µM). Further, the MIC in [7] was 50 µg/mL (≈ 176 µM); in [8], 6.3 µg/mL (≈ 22.2 µM); in [9], 12.5 µg/mL (≈ 44 µM); in the data set on Sarcina lutea ATCC 9341 it was more than 100 µg/mL; in data set [10], 50 µg/mL (≈ 176 µM); in [11] it was 12.5 µg/mL (≈ 44 µM). In addition, in [12], the MIC was more than 100 µg/mL. Also, the figures for the LD50 in “Acute toxicity” (setting [13]) and in “Acute toxicity” (setting [14]) were 115 mg/kg and 4500 mg/kg, respectively.

Regarding `CC(=O)Nc1ccc2c3c1c(=O)c(C(=O)O)cn3C1CCCCC21` (stereo not drawn) [Compound 8, 3-acetylamino-7a,8,9,10,11,11a-hexahydro-4-oxo-4H-pyrido[3,2,1-jk]carbazol-5-carboxylic acid], the MIC in the data set on Candida albicans KYU is more than 500 µg/mL; in [1], 3.2 µg/mL (≈ 9.81 µM); in the data set on Streptomyces viridans, 100 µg/mL (≈ 306 µM); in data set [2], 50 µg/mL (≈ 153 µM); in [3] it was 12.5 µg/mL (≈ 38.3 µM); in data set [4] it was 100 µg/mL (≈ 306 µM). For the same molecule, the MIC in the data set with Proteus mirabilis 1287 was determined as 25 µg/mL (≈ 76.6 µM); in [5], 6.3 µg/mL (≈ 19.3 µM); in the data set with Esherichia coli NIHJ, 12.5 µg/mL (≈ 38.3 µM); in the data set on Enterbactor cloacae 2, 6.3 µg/mL (≈ 19.3 µM); with Bacillus anthracis it was 6.3 µg/mL (≈ 19.3 µM); in data set [6] it was 50 µg/mL (≈ 153 µM). Besides, the MIC stood at 12.5 µg/mL (≈ 38.3 µM) in data set [7]; 3.2 µg/mL (≈ 9.81 µM) in data set [8]; 6.3 µg/mL (≈ 19.3 µM) in data set [9]; 50 µg/mL (≈ 153 µM) with Sarcina lutea ATCC 9341; 12.5 µg/mL (≈ 38.3 µM) in data set [10]; 6.3 µg/mL (≈ 19.3 µM) in data set [11]. Besides, the MIC in [12] was more than 100 µg/mL. Further, the figures for the median lethal dose (LD50) in “Acute toxicity” (setting [13]) and in “Acute toxicity” (setting [14]) were 110 mg/kg and 3500 mg/kg, respectively.

For `O=C(OCCBr)c1cn2c3c(cc(F)cc3c1=O)C1CCCCC12` (stereo not drawn) [Compound 9, β-bromoethyl 2-fluoro-7a,8,9,10,11,11a-hexahydro-4-oxo-4H-pyrido[3,2,1-jk]carbazol-5-carboxylate], the MIC with Candida albicans KYU is more than 500 µg/mL; in data set [1] it was 12.5 µg/mL (≈ 31.7 µM); in the data set with Streptomyces viridans, more than 100 µg/mL; in [2], 100 µg/mL (≈ 254 µM); in data set [3], 50 µg/mL (≈ 127 µM); in data set [4], more than 100 µg/mL. For the same molecule, the MIC was found to be 50 µg/mL (≈ 127 µM) with Proteus mirabilis 1287; 25 µg/mL (≈ 63.4 µM) in data set [5]; 25 µg/mL (≈ 63.4 µM) with Esherichia coli NIHJ; 12.5 µg/mL (≈ 31.7 µM) in the data set on Enterbactor cloacae 2; 50 µg/mL (≈ 127 µM) with Bacillus anthracis; 100 µg/mL (≈ 254 µM) in [6]. For the same molecule, the MIC in data set [7] amounted to 25 µg/mL (≈ 63.4 µM); in [8], 12.5 µg/mL (≈ 31.7 µM); in [9], 25 µg/mL (≈ 63.4 µM); in the data set with Sarcina lutea ATCC 9341, 100 µg/mL (≈ 254 µM); in data set [10] it was 50 µg/mL (≈ 127 µM); in [11], 25 µg/mL (≈ 63.4 µM). In data set [12], the MIC was more than 100 µg/mL. For the same molecule, the results for the LD50 in “Acute toxicity” (setting [13]) and in “Acute toxicity” (setting [14]) were 105 mg/kg and 3000 mg/kg, respectively.

Turning to `NNC(=O)c1cn2c3c(cc(F)cc3c1=O)C1CCCCC12` (stereo not drawn) [Compound 10, 2-Fluoro-7a,8,9,10,11,11a-hexahydro-4-oxo-4H-pyrido[3,2,1-jk]carbazol-5-carbohydrazide], the MIC in the data set on Candida albicans KYU is more than 500 µg/mL; in [1], 25 µg/mL (≈ 83 µM); in the data set with Streptomyces viridans, more than 100 µg/mL; in data set [2] it was more than 100 µg/mL; in data set [3], 50 µg/mL (≈ 166 µM); in [4], more than 100 µg/mL. Moreover, the MIC came to 50 µg/mL (≈ 166 µM) in the data set on Proteus mirabilis 1287; 12.5 µg/mL (≈ 41.5 µM) in data set [5]; 25 µg/mL (≈ 83 µM) in the data set on Esherichia coli NIHJ; 12.5 µg/mL (≈ 41.5 µM) in the data set with Enterbactor cloacae 2; 100 µg/mL (≈ 332 µM) with Bacillus anthracis; 100 µg/mL (≈ 332 µM) in data set [6]. Further, the MIC in [7] is 25 µg/mL (≈ 83 µM); in [8] it was 25 µg/mL (≈ 83 µM); in data set [9], 25 µg/mL (≈ 83 µM); with Sarcina lutea ATCC 9341 it was more than 100 µg/mL; in [10], 50 µg/mL (≈ 166 µM); in data set [11] it was 12.5 µg/mL (≈ 41.5 µM). Also, in data set [12], the MIC is more than 100 µg/mL. The LD50 (in general, the dose expected to kill half of the subjects tested) in the data set “Acute toxicity” (setting [13]) is 100 mg/kg; in “Acute toxicity” (setting [14]), 3500 mg/kg.

With `O=C(NN=Cc1ccc([N+](=O)[O-])o1)c1cn2c3c(cc(F)cc3c1=O)C1CCCCC12` (stereo not drawn) [Compound 11], the MIC was more than 500 µg/mL with Candida albicans KYU; 12.5 µg/mL (≈ 29.5 µM) in [1]; more than 100 µg/mL in the data set on Streptomyces viridans; 100 µg/mL (≈ 236 µM) in data set [2]; 12.5 µg/mL (≈ 29.5 µM) in [3]; more than 100 µg/mL in [4]. The MIC in the data set on Proteus mirabilis 1287 was found to be 12.5 µg/mL (≈ 29.5 µM); in [5], 6.3 µg/mL (≈ 14.8 µM); with Esherichia coli NIHJ it was 12.5 µg/mL (≈ 29.5 µM); in the data set on Enterbactor cloacae 2 it was 6.3 µg/mL (≈ 14.8 µM); with Bacillus anthracis, 6.3 µg/mL (≈ 14.8 µM); in data set [6] it was 12.5 µg/mL (≈ 29.5 µM). The MIC turned out to be 12.5 µg/mL (≈ 29.5 µM) in data set [7]; 3.2 µg/mL (≈ 7.54 µM) in [8]; 12.5 µg/mL (≈ 29.5 µM) in data set [9]; 100 µg/mL (≈ 236 µM) in the data set with Sarcina lutea ATCC 9341; 12.5 µg/mL (≈ 29.5 µM) in data set [10]; 6.3 µg/mL (≈ 14.8 µM) in data set [11]. Besides, the MIC in data set [12] is more than 100 µg/mL. The median lethal dose (LD50) came out at 180 mg/kg in the data set “Acute toxicity” (setting [13]) and 3000 mg/kg in “Acute toxicity” (setting [14]).

With `CC1CCN(CCOC(=O)c2cn3c4c(cc(F)cc4c2=O)C2CCCCC23)CC1` (stereo not drawn) [Compound 12], the MIC in the data set on Candida albicans KYU is more than 500 µg/mL; in data set [1] it was 12.5 µg/mL (≈ 30.3 µM); with Streptomyces viridans it was 100 µg/mL (≈ 242 µM); in data set [2], 50 µg/mL (≈ 121 µM); in data set [3], 6.3 µg/mL (≈ 15.3 µM); in data set [4], 50 µg/mL (≈ 121 µM). In addition, the MIC is 12.5 µg/mL (≈ 30.3 µM) with Proteus mirabilis 1287; 6.3 µg/mL (≈ 15.3 µM) in [5]; 6.3 µg/mL (≈ 15.3 µM) in the data set with Esherichia coli NIHJ; 6.3 µg/mL (≈ 15.3 µM) in the data set on Enterbactor cloacae 2; 6.3 µg/mL (≈ 15.3 µM) in the data set with Bacillus anthracis; 6.3 µg/mL (≈ 15.3 µM) in [6]. The MIC in [7] was 6.3 µg/mL (≈ 15.3 µM); in [8], 3.2 µg/mL (≈ 7.76 µM); in data set [9] it was 12.5 µg/mL (≈ 30.3 µM); in the data set on Sarcina lutea ATCC 9341 it was 50 µg/mL (≈ 121 µM); in [10], 6.3 µg/mL (≈ 15.3 µM); in data set [11], 6.3 µg/mL (≈ 15.3 µM). Further, the MIC in [12] was more than 100 µg/mL. Besides, the results for the LD50 in the data set “Acute toxicity” (setting [13]) and in the data set “Acute toxicity” (setting [14]) were 130 mg/kg and 2000 mg/kg, respectively.
